Measurements as given in paper PMC9586283 (Proceedings of the National Academy of Sciences of the …, 2022).

Columns and labels:
[1] = tested on: Pms1; experiment: Interaction of mutant Mlh1 with Pms1 during protein purification; type: binding, S. cerevisiae
[2] = tested on: supercoiled DNA plasmid; type: biochemical
[3] = tested on: end-blocked, mispair-containing DNA; type: binding; conditions: 20 nM Msh2-Msh6, 40 nM Mlh1-Pms1, 250 μM ATP, 25 °C, 20 μL/min, 236-bp DNA, Biacore T100
[4] = tested on: 3′ AflIII CC substrate; experiment: Reconstituted Exo1- and Mlh1-Pms1-dependent MMR reaction in vitro; type: biochemical
[5] = tested on: wild-type Mlh1-Pms1; experiment: Mlh1-Pms1 endonuclease assay; type: biochemical, S. cerevisiae; conditions: 7.5 nM PCNA, 30 nM RFC-Δ1N, 35 nM Mlh1-Pms1, 1 mM MnSO4, 20 mM Tris (pH 7.5), 0.5 mM ATP, 100 ng supercoiled pRS425, 30 °C, 30 min, agarose gel

Substance	ability to interact with Pms1 [1]	nicking activity relative to wild-type Mlh1-Pms1 ([2]; % of the nicking activity of the wild-type Mlh1-Pms1 protein, RFC-Δ1N and PCNA, ATP, 35 nM Mlh1-Pms1, 30 °C, 30 min, in triplicate) [%]	endonuclease activity (in words) ([2]; in vitro, with PCNA, RFC-Δ1N and ATP)	recruitment by Msh2-Msh6, increase in response units [3]	MMR in vitro (in words) [4]	Mlh1-Pms1 endonuclease activity ([5]; peptide-to-heterodimer molar ratio of 250:1) [%]	Mlh1-Pms1 endonuclease activity ([5]; peptide-to-heterodimer molar ratio of 1,000:1) [%]
Mlh1(RADA)-Pms1	did not observe any defects in the ability of Mlh1(RADA) to interact with Pms1	~10	defective for MMR and endonuclease activity in vitro	robust increase in the response units	defective for MMR	–	–
Mlh1-Pms1: wild-type S. cerevisiae Mlh1-Pms1 endonuclease heterodimer	–	–	–	robust increase in the response units	–	–	–
KAKRQENKLVRIDASQAKITSFLSS [wild-type peptide]	–	–	–	–	–	~70	~50
